For 21 molecules, Ratio IC50 and IC50 results are on record in ChEMBL document CHEMBL1141527, “Design, synthesis, and thrombin-inhibitory activity of pyridin-2-ones as P2/P3 core motifs” (Bioorg Med Chem Lett, 2008).

A short description of assay [1]: Selectivity ratio of IC50 for trypsin to IC50 for thrombin.
Assay [2] addresses Prothrombin (Homo sapiens, UniProt P00734). Nature of the assay: Inhibition of thrombin.
The nature of assay [3]: Inhibition of trypsin.

Bounds are passed on as bounds.

Turning to `Cc1ccn(NS(=O)(=O)Cc2ccccc2)c(=O)c1CC(=O)NCc1ccc(C(=N)N)cc1`, the Ratio IC50 in assay [1] amounted to 7.9. For the same molecule, the IC50 in assay [2] was 1920 nM; in assay [3] it was 15200 nM.
In assay [2], `CCc1ccc(S(=O)(=O)Nn2ccc(C)c(CC(=O)NCc3ccnc(N)c3)c2=O)cc1` yielded an IC50 above 44400 nM.
As to `COc1cccc(S(=O)(=O)Nn2ccc(C)c(CC(=O)NCc3ccc(C(=N)N)cc3)c2=O)c1`, the Ratio IC50 in assay [1] came to 15. Further, the 50% inhibitory concentration (IC50) in assay [2] amounted to 1050 nM; in assay [3], 15600 nM.
Take `Cc1ccn(/N=C/Cc2cccc(C(F)(F)F)c2)c(=O)c1CC(=O)NCc1ccc(N)nc1`: the Ratio IC50 in assay [1] is above 16. For the same molecule, the half-inhibitory concentration (IC50) is 2710 nM in assay [2] and above 44400 nM in assay [3].
Taken in the same sequence, the figures for `COc1ccc(S(=O)(=O)Nn2ccc(C)c(CC(=O)NCc3ccc(C(=N)N)cc3)c2=O)cc1` were 1.8, 1850 nM and 3410 nM.
Consider `Cc1ccccc1CCNn1ccc(C)c(CC(=O)NCc2ccc(C(=N)N)cc2)c1=O`, for which the Ratio IC50 in assay [1] is 42. Besides, the half-maximal inhibitory concentration (IC50) in assay [2] worked out at 23 nM; in assay [3] it was 963 nM.
As for `Cc1ccc(C)c(CCNn2ccc(C)c(CC(=O)NCc3ccc(C(=N)N)cc3)c2=O)c1`, the Ratio IC50 in assay [1] stood at 23. Further, the concentration for half-maximal inhibition (IC50) in assay [3] was found to be 2140 nM.
As for `Cc1cc(-c2ccc(S(=O)(=O)Nn3ccc(C)c(CC(=O)NCc4ccc(N)nc4)c3=O)cc2)c(C)s1`, the IC50 in assay [2] is above 44400 nM.
Still for that read-out and setting: the value for `CCCc1ccc(S(=O)(=O)Nn2ccc(C)c(CC(=O)NCc3nccc(C)c3F)c2=O)cc1` was above 44400 nM.
Regarding `Cc1ccn(NCCc2ccccc2)c(=O)c1CC(=O)NCc1ccc(C(=N)N)cc1`, the Ratio IC50 in assay [1] is 16. Moreover, the IC50 in assay [2] turned out to be 91 nM; in assay [3], 1420 nM.
Taken in the same sequence, the figures for `COc1cc(Cl)ccc1S(=O)(=O)Nn1ccc(C)c(CC(=O)NCc2ccc(C(=N)N)cc2)c1=O` were 13, 307 nM and 4130 nM.
On to `Cc1ccnc(CNC(=O)Cc2c(C)ccn(NS(=O)(=O)c3c(C)cccc3Cl)c2=O)c1F`, for which the 50% inhibitory concentration (IC50) in assay [2] and in assay [3] was above 44400 nM in each case.
In assay [2], `Cc1ccnc(CNC(=O)Cc2c(C)ccn(NS(=O)(=O)c3ccccc3S(C)(=O)=O)c2=O)c1F` came in with an IC50 above 44400 nM.
On to `COc1cc(C)ccc1S(=O)(=O)Nn1ccc(C)c(CC(=O)NCc2ccc(C(=N)N)cc2)c1=O`, for which the Ratio IC50 in assay [1] was determined as 1.7. Further, the concentration for half-maximal inhibition (IC50) in assay [2] was 1180 nM; in assay [3], 2020 nM.
For the molecule `Cc1ccn(NS(=O)(=O)c2ccc(Cl)c(Cl)c2)c(=O)c1CC(=O)NCc1ccc(C(=N)N)cc1`, the Ratio IC50 in assay [1] worked out at 12. The IC50 is 885 nM in assay [2] and 10300 nM in assay [3].
In the same order, the values of `Cc1ccn(NS(=O)(=O)c2cccc3ccccc23)c(=O)c1CC(=O)NCc1ccc(C(=N)N)cc1` are 14, 1240 nM and 17100 nM.
In the case of `COc1ccc(S(=O)(=O)Nn2ccc(C)c(CC(=O)NCc3ccc(N)nc3)c2=O)c(OC)c1`, the half-inhibitory concentration (IC50) was above 44400 nM in assay [2] and above 4400 nM in assay [3].
For `Cc1ccc(C)c(S(=O)(=O)Nn2ccc(C)c(CC(=O)NCc3ccc(C(=N)N)cc3)c2=O)c1`, the Ratio IC50 in assay [1] was determined as 12. The figures for the 50% inhibitory concentration (IC50) in assay [2] and in assay [3] were 578 nM and 7130 nM, respectively.
`Cc1ccnc(CNC(=O)Cc2c(C)ccn(NCCc3cc(Cl)ccc3F)c2=O)c1F` displayed an IC50 in assay [2] above 44400 nM.
For the molecule `Cc1ccn(NS(=O)(=O)c2ccccc2)c(=O)c1CC(=O)NCc1ccc(C(=N)N)cc1`, the Ratio IC50 in assay [1] is 2.3. The IC50 in assay [2] was determined as 2470 nM; in assay [3], 5770 nM.
As to `Cc1ccn(NCS(=O)(=O)c2ccc(Cl)cc2)c(=O)c1CC(=O)NCc1ccnc(N)c1`, in assay [2], the half-maximal inhibitory concentration (IC50) was above 44400 nM.

In general, IC50 refers to the concentration that inhibits the measured activity by half. Low readings indicate greater potency in that assay, high ones weaker potency in that assay.
